In patent US20120172306A1, “Use of HASF as a Protective Agent Against Ischemic Tissue Damage” (Duke University, priority 2009, published 2012):

Legend:
[1] = system: PKC, Raf, ERK 1/2, PDK1 phosphorylation in adult rat cardiomyocytes; assay: Western blot analysis of signaling protein phosphorylation (PKC/ERK pathway); type: cell-based; settings: 3 μM inhibitor 30 min, then 100 nM HASF 5-10 min
Experimental: FIG. 3A is a photograph of an electrophoretic gel. HASF activates the PKC pathway. A. Western blots analysis for various signaling proteins. Serum-starved adult rat cardiomyocytes were stimulated with 100 nM HASF recombinant protein for various time courses. Cell lysate was collected and the proteins were resolved by SDS-PAGE. Insulin from bovine pancreas was used as a positive control. min: minutes of treatment.
FIG. 3B is a photograph of an immunoblot. Serum-starved adult rat cardiomyocytes were pre-treated with 3 μM PKC inhibitors BIM, Gö6976, or Gö6983 for 30 minutes, then stimulated with 100 nM HASF recombinant protein for 5-10 min and cells were harvested. Total cell lysates were used to analyze the levels of ERK1/2 phosphorylation by western blot analysis.
FIG. 4A is a photograph of an immunoblot. Western blot analysis for PKC E and PKC delta phosphorylation on total cell lysates from serum-starved adult rat cardiomyocytes stimulated with 100 nM HASF recombinant protein at 5 and 30 min. HASF b1 and b2 represent different batches of recombinant protein. PMA was used as positive control.
FIG. 4B is a photograph of an immunoblot. Western blot analysis for ERK1/2 phosphorylation on total cell lysates from adult rat cardiomyocytes pre-treated with 10 pM PKC epsilon translocation inhibitor peptide for 20 min, then 100 nM HASF recombinant protein was added for 5 min or 10 min.
FIGS. 8A-B are photographs of immunoblots. Western blot analysis for PKC a/b and PKC theta phosphorylation on total cell lysates from serum-starved adult rat cardiomyocytes stimulated with 100 nM HASF recombinant protein for the indicated times. HASF batch 1 and 2 represent different batches of recombinant protein. PMA was used as positive control.
Rabbit polyclonal antibodies for phospho-pan PKC, phospho-ERK1/2, phospho-raf, phosphor-PDK1, total Akt were obtained from Cell Signaling Tech. Rabbit polyclonal antibody for phospho-PKC epsilon, phospho-Bad, and GAPDH was obtained from Abeam. HRP-conjugated goat anti-rabbit secondary antibody was obtained from Cell Signaling Tech.

[2] = system: adult rat cardiomyocytes; assay: Caspase-Glo 9 and 3/7 assays of H2O2 induced apoptosis; type: cell-based; settings: 3 μM inhibitor 30 min, 100 nM HASF 30 min, 200 μM H2O2 3 hours
Experimental: FIGS. 2B and 2C are bar graphs showing relative caspase activity. Adult rat cardiomyocytes were freshly isolated and treated ±10 nM of HASF for 30 min, and then challenged with 100 μM of H2O2 for various time points. H2O2 induced apoptosis in cardiomyocytes was evidenced by the dynamic increase in the activities of the initiator Caspase 9 and effector Caspase […] at 5 h, 7 h and 9 h respectively. Y axis represent the relative amount of luminescence indicating the relative amount of active Caspase activities. ** P<0.01 and *** P<0.001. Data are presented as means±standard deviation of triplicates.
FIG. 3C is a bar graph showing fold-change in caspase activity. Serum-starved adult rat cardiomyocytes were treated with 3 μM PKC inhibitors or vehicle DMSO for 30 minutes, then 100 nM HASF recombinant protein was added for 30 minutes followed by treatment with 200 μM H2O2 for 3 hours. Apoptosis was determined by detection of Caspase-9 activity using a homogeneous luminescent assay. All samples were measured in triplicates. *P<0.05 vs. non-HASF treated cells.
FIG. 4C is a bar graph showing relative caspase activity in adult cardiomyocytes. Apoptosis as determined by detection of Caspase-9 activity on adult rat cardiomyocytes pre-treated with 178 μM PKC translocation inhibitor peptide for 10 minutes and then with 100 nM of HASF for 30 minutes. Thereafter, cells were challenged with 200 μM H2O2 for 3 hours. All samples were measured in triplicates. *P <0.05 vs. non-HASF treated cells and the experiment was repeated multiple times.
Adult rat ventricular cardiomyocytes were isolated from 6 weeks old female Sprague-Dawley rat (Harlan World Headquarters, Indianapolis, Ill., USA) hearts by enzymatic digestion and were seeded in (6-well) plates or Delta T culture dishes (Bioptechs, Inc., Pa.) pre-coated with 1 μg/cm2 of laminin (Sigma) at 5×10^4/well and cultured overnight in serum-free M199 medium (Sigma), supplemented with 2 mM of L-carnitine, 5 mM of creatine, 5 mM of taurine, 0.2% of albumin, 100 U/ml of penicillin and 100 μg/ml of streptomycin. […]

CN(C)CCCn1cc(C2=C(c3c[nH]c4ccccc34)C(=O)NC2=O)c2ccccc21.Cl [BIM, Bisindolylmalemide Hydrochloride, reference compound]
effect of PKC inhibitor on HASF-mediated ERK1/2 phosphorylation [1]: abolished | effect of PKC inhibitor on protective effects of HASF (Caspase-9 activity) [2]: abolished the protective effects
